Data reported in ChEMBL document CHEMBL1649350, “Receptor-dependent (RD) 3D-QSAR approach of a series of benzylpiperidine inhibitors of human acetylcholinesterase (HuAChE)” (Eur J Med Chem, 2011).

Target: Acetylcholinesterase (Homo sapiens, UniProt P22303)
Sequence (P22303 whole entry): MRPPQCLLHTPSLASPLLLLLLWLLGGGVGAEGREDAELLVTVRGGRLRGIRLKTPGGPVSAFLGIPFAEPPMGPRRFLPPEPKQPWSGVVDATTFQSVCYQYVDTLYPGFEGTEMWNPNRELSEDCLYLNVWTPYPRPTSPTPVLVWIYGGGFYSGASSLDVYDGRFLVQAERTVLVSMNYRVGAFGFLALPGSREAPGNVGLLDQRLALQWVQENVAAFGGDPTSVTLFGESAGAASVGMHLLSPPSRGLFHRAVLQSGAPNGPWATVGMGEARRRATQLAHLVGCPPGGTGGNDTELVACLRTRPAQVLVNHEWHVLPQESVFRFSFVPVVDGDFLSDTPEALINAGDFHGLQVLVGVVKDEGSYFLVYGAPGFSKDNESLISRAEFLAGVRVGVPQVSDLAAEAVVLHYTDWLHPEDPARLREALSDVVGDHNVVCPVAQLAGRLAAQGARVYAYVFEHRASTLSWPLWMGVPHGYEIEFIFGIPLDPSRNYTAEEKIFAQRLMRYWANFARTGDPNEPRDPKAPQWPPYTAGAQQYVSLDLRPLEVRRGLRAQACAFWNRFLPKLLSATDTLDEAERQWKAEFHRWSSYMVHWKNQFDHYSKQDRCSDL
Description: Inhibition of human acetylcholinesterase

| SMILES | IC50 [nM] |
| --- | --- |
| O=C(CCC1CCN(Cc2ccccc2)CC1)c1ccc2c(c1)CCCN2 | 64.6 |
| O=C(CCC1CCN(Cc2ccccc2)CC1)c1ccc2c(c1)NC(c1ccccc1)N2 (stereo not drawn) | 33.1 |
| O=C(CCC1CCN(Cc2ccccc2)CC1)c1ccc2c(c1)CNCCC2 | 22.9 |
| O=C(CCC1CCN(Cc2ccccc2)CC1)c1ccc2c(c1)CCNCC2 | 25.1 |
| O=C(CCC1CCN(Cc2ccccc2)CC1)c1ccc2c(c1)CNCCO2 | 39.8 |
| O=C(CCC1CCN(Cc2ccccc2)CC1)c1cc2c3c(c1)CC(=O)N3CCC2 | 3.63 |
| O=C(CCC1CCN(Cc2ccccc2)CC1)c1cc2c3c(c1)CCN3C(=O)CC2 | 9.77 |
| O=C(CCC1CCN(Cc2ccccc2F)CC1)c1cc2c3c(ccn3C(=O)CC2)c1 | 2.51 |
| O=C(CCC1CCN(Cc2cccc(F)c2)CC1)c1cc2c3c(ccn3C(=O)CC2)c1 | 1.29 |
| O=C(CCC1CCN(Cc2ccccc2Cl)CC1)c1cc2c3c(ccn3C(=O)CC2)c1 | 5.13 |
| O=C(CCC1CCN(Cc2cccc(Cl)c2)CC1)c1cc2c3c(ccn3C(=O)CC2)c1 | 4.9 |
| O=C(CCC1CCN(Cc2ccc(Cl)cc2)CC1)c1cc2c3c(ccn3C(=O)CC2)c1 | 151 |
| COc1ccccc1CN1CCC(CCC(=O)c2cc3c4c(ccn4C(=O)CC3)c2)CC1 | 64.6 |
| COc1cccc(CN2CCC(CCC(=O)c3cc4c5c(ccn5C(=O)CC4)c3)CC2)c1 | 126 |
| COc1ccc(CN2CCC(CCC(=O)c3cc4c5c(ccn5C(=O)CC4)c3)CC2)cc1 | 347 |
| O=C(CCC1CCN(Cc2ccccc2O)CC1)c1cc2c3c(ccn3C(=O)CC2)c1 | 1.1 |
| O=C(CCC1CCN(Cc2cccc(O)c2)CC1)c1cc2c3c(ccn3C(=O)CC2)c1 | 8.71 |
| O=C(CCC1CCN(Cc2ccccc2[N+](=O)[O-])CC1)c1cc2c3c(ccn3C(=O)CC2)c1 | 89.1 |
| O=C(CCC1CCN(Cc2cccc([N+](=O)[O-])c2)CC1)c1cc2c3c(ccn3C(=O)CC2)c1 | 2.88 |
| O=C(CCC1CCN(Cc2ccccc2)CC1)c1cc2c3c(c1)CCC(=O)N3CCC2 | 15.8 |
| O=C(CCC1CCN(Cc2ccccc2)CC1)c1cc2c3c(c1)CCN3C(=O)CCC2 | 52.5 |
| CS(=O)(=O)Nc1ccc2c(CCC3CCN(Cc4ccccc4)CC3)noc2c1 | 14.1 |
| c1ccc(CN2CCC(CCc3noc4cc(C5CCCCC5)ccc34)CC2)cc1 | 0.794 |
| O=C(CCC1CCN(Cc2ccc(F)cc2)CC1)c1cc2c3c(ccn3C(=O)CC2)c1 | 4.57 |
| O=C(CCC1CCN(Cc2ccc(O)cc2)CC1)c1cc2c3c(ccn3C(=O)CC2)c1 | 0.49 |
| O=C(CCC1CCN(Cc2ccc([N+](=O)[O-])cc2)CC1)c1cc2c3c(ccn3C(=O)CC2)c1 | 42.7 |
| O=C(CCC1CCN(Cc2ccccc2)CC1)c1ccc2c(c1)NCCC2 | 166 |
| O=C(CCC1CCN(Cc2ccccc2)CC1)c1ccc2c(c1)CCN2 | 52.5 |
